Data on nine compounds can be found in patent US5659038A, “5-vinyl-and 5-ethinyl-quinolone- and -naphthyridone-carboxylic acids” (Bayer Aktiengesellschaft, priority 1994, dated 1997).

Common to all, as to format: cell-based
Assay [1] concerns Staphylococcus aureus 133. In words: MIC, serial agar dilution. How it is done:
(§1) The minimum inhibitory concentrations (MICs) were determined in serial dilution tests using Iso-Sensitest Agar (Oxoid). For each test substance, a series of agar plates was prepared which contained concentrations of the active compound which decreased as a result of dilution to twice the volume each time. The agar plates were inoculated using a Multipoint Inoculator (Denley). For inoculation, overnight cultures of the pathogens were used which had previously been diluted to such a concentration that each inoculation point contained approximately 10^4 colony-forming particles. The inoculated agar plates were incubated at 37° C., and the microbial growth was determined after approximately 20 hours. The MIC value (μg/ml) indicates the lowest concentration of active compound at which no growth was discernible with the naked eye.

Assay [2] relates to Enterobater cloaceae 2427. Briefly: MIC, serial agar dilution. How it is done: as §1
The next assay has as its system E. coli Neumann. Briefly: MIC, serial agar dilution. As to conditions: Escherichia coli. How it is done: as §1
For assay [3], the system named is Staphylococcus aureus ICB 25701. In words: MIC, serial agar dilution. The procedure: as §1
Assay [4] has as its system Enterococcus faecalis 27101. In words: MIC, serial agar dilution. How it is done:
as §1

Assay [5] has as its system Staphylococcus aureus ATTC 29213. In words: MIC, serial agar dilution. How it is done: as §1
The test system of another assay is Enterobater aer.ICB 5240. Briefly: MIC, serial agar dilution. The procedure: as §1
Assay [6] relates to Enterococcus faecalis 9790. In words: MIC, serial agar dilution. The procedure:
as §1

In another assay the test system is Staph. Z433-4 LH. Briefly: MIC, veterinary microorganisms. Particulars: 20 h. How it is done: as §1
(§2) Table 3 lists MIC values of compounds according to the invention against microorganisms which aye specific to veterinary medicine. The comparison compound shown in this case is enrofloxacin (ENRO), which is a therapeutic used in veterinary medicine.

The next assay has as its system Staph. Z 318 Lh. Briefly: MIC, veterinary microorganisms. As to conditions: 20 h. The procedure: as §1, §2
Another assay has as its system E. coli G293 Lh. In words: MIC, veterinary microorganisms. Particulars: Escherichia coli, G293LH, 20 h. How it is done: as §1, §2
The next assay has as its system E. coli 21 Bui. In words: MIC, veterinary microorganisms. Particulars: Escherichia coli, 20 h. How it is done: as §1, §2
In a further assay the test system is Staph. Ky 469 We. Briefly: MIC, veterinary microorganisms. Particulars: 20 h. How it is done: as §1, §2
The mark [7] stands for this setting: Staphylococcus aureus 133, Iso-Sensitest Agar, 37° C., approximately 20 hours, read-out: MIC.
Setting [8] is: Enterobater cloaceae 2427, Iso-Sensitest Agar, 37° C., approximately 20 hours, read-out: MIC.
[9] abbreviates: E. coli Neumann, Iso-Sensitest Agar, 37° C., approximately 20 hours, read-out: MIC.
[10] abbreviates: ICB25701, Staphylococcus aureus ICB 25701, Iso-Sensitest Agar, 37° C., approximately 20 hours, read-out: MIC.
Setting [11] is: Enterococcus faecalis 27101, Iso-Sensitest Agar, 37° C., approximately 20 hours, read-out: MIC.
[12] abbreviates: ATTC29213, Staphylococcus aureus ATTC 29213, Iso-Sensitest Agar, 37° C., approximately 20 hours, read-out: MIC.
Where [13] appears, read: Enterobater aer.ICB 5240, Iso-Sensitest Agar, 37° C., approximately 20 hours, read-out: MIC.
The mark [14] stands for this setting: Enterococcus faecalis 9790, Iso-Sensitest Agar, 37° C., approximately 20 hours, read-out: MIC.
The mark [15] stands for this setting: Staphylococcus aureus, ICB25701, 20 h.
[16] abbreviates: Staphylococcus aureus, ATTC29213, 20 h.

Molecules are shown by their SMILES. Converted amounts (≈) assume the structure as drawn. Counter-ions that a name gives are not always drawn. Like-named read-outs stand apart in the source and are kept apart here.

`C=Cc1c(F)c(N2CC3CC=CC(N)C3C2)c(F)c2c1c(=O)c(C(=O)O)cn2C1CC1` (stereo not shown) [Compound 6, 7-(4-amino-1,3,3a,4,7,7a-hexahydro-isoindol-2-yl)-1-cyclopropyl-6,8-difluoro-1,4-dihydro-4-oxo-5-vinyl-3-quinolinecarboxylic acid]: the MIC in assay [1] (setting [7]) is at most 0.015 µg/mL; in assay [2] (setting [8]) it was 0.125 µg/mL (≈ 0.292 µM); in the assay on E. coli Neumann (setting [9]), 0.015 µg/mL (≈ 0.0351 µM); in assay [3] (setting [10]), 0.03 µg/mL (≈ 0.0702 µM); in assay [4] (setting [11]), 0.03 µg/mL (≈ 0.0702 µM); in assay [5] (setting [12]), at most 0.015 µg/mL. Also, the MIC with Enterobater aer.ICB 5240 (setting [13]) is 4 µg/mL (≈ 9.36 µM); in assay [6] (setting [14]) it was 0.03 µg/mL (≈ 0.0702 µM); in the assay on Staph. Z433-4 LH it was 0.015 µg/mL (≈ 0.0351 µM); against Staph. Z 318 Lh it was 0.06 µg/mL (≈ 0.14 µM); in the assay with E. coli G293 Lh it was 8 µg/mL (≈ 18.7 µM); against E. coli 21 Bui, 4 µg/mL (≈ 9.36 µM). In addition, inhibition of growth with Staph. Ky 469 We (MIC) required 0.015 µg/mL (≈ 0.0351 µM).
As for `C=Cc1c(F)c(N2C[C@@H]3CCCN[C@@H]3C2)c(F)c2c1c(=O)c(C(=O)O)cn2C1CC1` [Compound 3, 1-cyclopropyl-7-(S,S-2,8-diazabicyclo[4.3.0]non-8-yl)-6,8-difluoro-1,4-dihydro-4-oxo-5-vinyl-3-quinolinecarboxylic acid], the MIC is 0.03 µg/mL (≈ 0.0722 µM) in assay [1] (setting [7]); 0.06 µg/mL (≈ 0.144 µM) in assay [2] (setting [8]); at most 0.015 µg/mL with E. coli Neumann (setting [9]); 0.5 µg/mL (≈ 1.2 µM) in [3] (setting [15]); 0.125 µg/mL (≈ 0.301 µM) in assay [4] (setting [11]); 0.03 µg/mL (≈ 0.0722 µM) in [5] (setting [12]). The MIC worked out at 8 µg/mL (≈ 19.3 µM) against Enterobater aer.ICB 5240 (20 h) and 0.125 µg/mL (≈ 0.301 µM) in assay [6] (setting [14]).
Turning to `C=Cc1c(F)c(N2C[C@@H]3CCCN[C@@H]3C2)c(F)c2c1c(=O)c(C(=O)O)cn2C1CC1` (relative stereo) [Compound 2, 1-cyclopropyl-7-(cis-2,8-diazabicyclo[4.3.0]non-8-yl)-6,8-difluoro-1,4-dihydro-4-oxo-5-vinyl-3-quinolinecarboxylic acid], the MIC in [1] (setting [7]) came out at 0.06 µg/mL (≈ 0.144 µM); in assay [2] (setting [8]), 0.125 µg/mL (≈ 0.301 µM); in the assay with E. coli Neumann (setting [9]) it was 0.06 µg/mL (≈ 0.144 µM); in assay [3] (setting [15]) it was 1 µg/mL (≈ 2.41 µM); in assay [4] (setting [11]), 0.125 µg/mL (≈ 0.301 µM); in assay [5] (setting [12]), 0.06 µg/mL (≈ 0.144 µM). The MIC worked out at 16 µg/mL (≈ 38.5 µM) in the assay on Enterobater aer.ICB 5240 (setting [13]) and 0.125 µg/mL (≈ 0.301 µM) in assay [6] (setting [14]).
As to `C=Cc1c(F)c(N2CCC(N)C2)c(F)c2c1c(=O)c(C(=O)O)cn2C1CC1.Cl` (stereo not shown) [Compound 5, 7-(3-aminopyrrolidin-1-yl)-1-cyclopropyl-6,8-difluoro-1,4-dihydro-4-oxo-5-vinyl-3-quinolinecarboxylic acid hydrochloride], the MIC in assay [1] (setting [7]) was 0.03 µg/mL; in assay [2] (setting [8]) it was at most 0.015 µg/mL; in the assay on E. coli Neumann (setting [9]) it was at most 0.015 µg/mL; in assay [3] (setting [10]), 2 µg/mL; in assay [4] (setting [11]) it was 0.06 µg/mL; in [5] (setting [12]), at most 0.015 µg/mL. Moreover, the MIC came out at 4 µg/mL in the assay with Enterobater aer.ICB 5240 (setting [13]); 0.125 µg/mL in assay [6] (setting [14]); 0.03 µg/mL with Staph. Z433-4 LH; 2 µg/mL in the assay on Staph. Z 318 Lh; 32 µg/mL in the assay with E. coli G293 Lh; 16 µg/mL against E. coli 21 Bui. Also, in the assay with Staph. Ky 469 We, the MIC is 0.03 µg/mL.
As for `CCN1CCN(c2cc3c(cc2F)c(=O)c(C(=O)O)cn3C2CC2)CC1` [ENRO, enrofloxacin, reference compound], the MIC worked out at 0.25 µg/mL (≈ 0.696 µM) with Staph. Z433-4 LH; 8 µg/mL (≈ 22.3 µM) against Staph. Z 318 Lh; 32 µg/mL (≈ 89 µM) in the assay on E. coli G293 Lh; 32 µg/mL (≈ 89 µM) in the assay on E. coli 21 Bui; 0.12 µg/mL (≈ 0.334 µM) in the assay with Staph. Ky 469 We.
For the compound `CCc1c(F)c(N2CCN(C)CC2)c(F)c2c1c(=O)c(C(=O)O)cn2C1CC1` [Compound K, 1-cyclopropyl-5-ethyl-6,8-difluoro-1,4-dihydro-7-(4-methyl-1-piperazinyl)-4-oxo-3-quinolinecarboxylic acid, reference compound], the MIC was found to be 16 µg/mL (≈ 40.9 µM) in assay [1] (setting [7]); 1 µg/mL (≈ 2.55 µM) in assay [2] (20 h); 0.25 µg/mL (≈ 0.639 µM) in the assay on E. coli Neumann (20 h); 64 µg/mL (≈ 164 µM) in assay [3] (setting [10]); 64 µg/mL (≈ 164 µM) in [4] (setting [11]); 8 µg/mL (≈ 20.4 µM) in [5] (setting [16]). Moreover, the results for the MIC (in the assay on Enterobater aer.ICB 5240 (setting [13]); in assay [6] (setting [14])) were at most 128 µg/mL and 64 µg/mL (≈ 164 µM), respectively.
For the compound `C=Cc1c(F)c(N2CCN(C)CC2)c(F)c2c1c(=O)c(C(=O)O)cn2C1CC1` [Compound 1, 1-cyclopropyl-6,8-difluoro-1,4-dihydro-4-oxo-7-(4-methyl-1-piperazinyl)-4-oxo-5-vinyl-3-quinolinecarboxylic acid], the MIC was 0.25 µg/mL (≈ 0.642 µM) in assay [1] (Staphylococcus aureus, 133, 20 h); 0.25 µg/mL (≈ 0.642 µM) in assay [2] (20 h); 0.06 µg/mL (≈ 0.154 µM) in the assay on E. coli Neumann (setting [9]); 64 µg/mL (≈ 164 µM) in assay [3] (setting [10]); 1 µg/mL (≈ 2.57 µM) in assay [4] (Enterococcus faecalis, 27101, 20 h); 0.25 µg/mL (≈ 0.642 µM) in assay [5] (setting [16]). Besides, the minimum inhibitory concentration (MIC) in the assay on Enterobater aer.ICB 5240 (20 h) came to 32 µg/mL (≈ 82.2 µM); in assay [6] (Enterococcus faecalis, 9790, 20 h), 1 µg/mL (≈ 2.57 µM).
Take `C=Cc1c(F)c(N2CC3CCOC3(CN)C2)c(F)c2c1c(=O)c(C(=O)O)cn2C1CC1` (stereo not shown) [Compound 11, 7-(6a-aminomethylhexahydro-furo[2,3-c]pyrrol-5-yl)-1-cyclopropyl-6,8-difluoro-1,4-dihydro-4-oxo-5-vinyl-3-quinolinecarboxyllc acid hydrochloride]: the MIC in assay [1] (setting [7]) was found to be 0.015 µg/mL; in assay [2] (setting [8]), 0.125 µg/mL; in the assay on E. coli Neumann (setting [9]), 0.03 µg/mL; in assay [3] (setting [15]), 0.5 µg/mL; in assay [4] (setting [11]), 0.125 µg/mL; in assay [5] (setting [12]), 0.015 µg/mL. For the same compound, the results for the MIC (with Enterobater aer.ICB 5240 (20 h); in [6] (setting [14])) were 32 µg/mL and 0.125 µg/mL, respectively.
As for `C=Cc1c(F)c(N2CC3CC=CC(NC)C3C2)c(F)c2c1c(=O)c(C(=O)O)cn2C1CC1` (stereo not shown) [Compound 7, 7-(4-methylamino-1,3,3a,4,7,7a-hexahydro-isoindol-2-yl)-1-cyclopropyl-6,8-difluoro-1,4-dihydro-4-oxo-5-vinyl-3-quinolinecarboxylic acid], the MIC is at most 0.015 µg/mL in assay [1] (setting [7]); 0.125 µg/mL (≈ 0.283 µM) in assay [2] (setting [8]); 0.03 µg/mL (≈ 0.068 µM) in the assay on E. coli Neumann (setting [9]); 0.03 µg/mL (≈ 0.068 µM) in assay [3] (setting [10]); 0.03 µg/mL (≈ 0.068 µM) in assay [4] (setting [11]); at most 0.015 µg/mL in [5] (setting [12]). The MIC in the assay with Enterobater aer.ICB 5240 (20 h) worked out at 8 µg/mL (≈ 18.1 µM); in [6] (setting [14]), 0.03 µg/mL (≈ 0.068 µM).
